Data reported in PMC8007111, “Novel Potent Muscarinic Receptor Antagonists: Investigation on the Nature of Lipophilic Substituents in the 5- and/or 6-Positions of the 1,4-Dioxane Nucleus” (Journal of Medicinal Chemistry, 2020).
Like-named read-outs stand apart in the source and are kept apart here.

What was measured:
[1] = biological target: T1, hM1 mAChR (Homo sapiens, UniProt P11229); conditions: cited from earlier work
T1 construct: expressed in transfected cells; host or cells: CHO-K1 (membrane preparation)
T1 sequence (P11229 1-460): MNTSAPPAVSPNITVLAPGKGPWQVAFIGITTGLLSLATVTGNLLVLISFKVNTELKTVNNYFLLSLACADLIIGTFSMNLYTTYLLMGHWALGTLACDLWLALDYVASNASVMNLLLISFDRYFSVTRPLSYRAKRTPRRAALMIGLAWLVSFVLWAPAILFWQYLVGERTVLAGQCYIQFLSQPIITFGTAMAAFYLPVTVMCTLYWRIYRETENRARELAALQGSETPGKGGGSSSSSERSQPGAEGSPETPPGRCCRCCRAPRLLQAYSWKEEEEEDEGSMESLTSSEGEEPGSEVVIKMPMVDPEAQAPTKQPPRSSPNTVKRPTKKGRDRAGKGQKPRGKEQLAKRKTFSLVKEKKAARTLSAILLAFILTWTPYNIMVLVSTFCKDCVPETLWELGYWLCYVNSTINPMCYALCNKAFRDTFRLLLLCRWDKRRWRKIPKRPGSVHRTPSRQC

[2] = biological target: T2, hM2 mAChR (Homo sapiens, UniProt P08172); conditions: cited from earlier work
T2 construct: expressed in transfected cells; host or cells: CHO-K1 (membrane preparation)
T2 sequence (P08172 1-466): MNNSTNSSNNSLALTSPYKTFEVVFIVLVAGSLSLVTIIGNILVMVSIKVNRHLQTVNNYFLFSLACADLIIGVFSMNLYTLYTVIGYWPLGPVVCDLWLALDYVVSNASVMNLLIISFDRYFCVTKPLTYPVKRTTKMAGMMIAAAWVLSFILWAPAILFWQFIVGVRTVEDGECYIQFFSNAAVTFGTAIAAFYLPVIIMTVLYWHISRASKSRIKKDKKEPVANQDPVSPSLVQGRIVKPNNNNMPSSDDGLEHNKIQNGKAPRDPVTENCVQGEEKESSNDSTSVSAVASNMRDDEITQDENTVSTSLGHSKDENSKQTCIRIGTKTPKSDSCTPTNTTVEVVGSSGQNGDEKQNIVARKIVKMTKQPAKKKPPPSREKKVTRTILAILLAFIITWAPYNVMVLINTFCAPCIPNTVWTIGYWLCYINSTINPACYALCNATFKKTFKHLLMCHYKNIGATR

[3] = biological target: T3, hM3 mAChR (Homo sapiens, UniProt P20309); conditions: cited from earlier work
T3 construct: expressed in transfected cells; host or cells: CHO-K1 (membrane preparation)

[4] = biological target: T4, hM4 mAChR (Homo sapiens, UniProt P08173); conditions: cited from earlier work
T4 construct: expressed in transfected cells; host or cells: CHO-K1 (membrane preparation)
T4 sequence (P08173 1-479): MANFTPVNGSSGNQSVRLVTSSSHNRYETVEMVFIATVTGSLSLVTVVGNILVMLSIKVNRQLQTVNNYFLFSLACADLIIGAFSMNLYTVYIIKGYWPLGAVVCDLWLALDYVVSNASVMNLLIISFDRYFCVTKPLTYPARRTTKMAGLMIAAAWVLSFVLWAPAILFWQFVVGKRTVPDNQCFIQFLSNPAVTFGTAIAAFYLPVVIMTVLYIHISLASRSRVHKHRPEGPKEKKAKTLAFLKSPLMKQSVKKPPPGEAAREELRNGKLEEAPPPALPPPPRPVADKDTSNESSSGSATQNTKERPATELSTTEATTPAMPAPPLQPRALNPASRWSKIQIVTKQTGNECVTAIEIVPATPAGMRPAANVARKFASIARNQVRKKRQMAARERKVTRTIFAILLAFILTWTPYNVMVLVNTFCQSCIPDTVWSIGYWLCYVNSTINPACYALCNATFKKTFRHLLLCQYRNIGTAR

[5] = biological target: T5, hM5 mAChR (Homo sapiens, UniProt P08912); conditions: cited from earlier work
T5 construct: expressed in transfected cells; host or cells: CHO-K1 (membrane preparation)
T5 sequence (P08912 1-532): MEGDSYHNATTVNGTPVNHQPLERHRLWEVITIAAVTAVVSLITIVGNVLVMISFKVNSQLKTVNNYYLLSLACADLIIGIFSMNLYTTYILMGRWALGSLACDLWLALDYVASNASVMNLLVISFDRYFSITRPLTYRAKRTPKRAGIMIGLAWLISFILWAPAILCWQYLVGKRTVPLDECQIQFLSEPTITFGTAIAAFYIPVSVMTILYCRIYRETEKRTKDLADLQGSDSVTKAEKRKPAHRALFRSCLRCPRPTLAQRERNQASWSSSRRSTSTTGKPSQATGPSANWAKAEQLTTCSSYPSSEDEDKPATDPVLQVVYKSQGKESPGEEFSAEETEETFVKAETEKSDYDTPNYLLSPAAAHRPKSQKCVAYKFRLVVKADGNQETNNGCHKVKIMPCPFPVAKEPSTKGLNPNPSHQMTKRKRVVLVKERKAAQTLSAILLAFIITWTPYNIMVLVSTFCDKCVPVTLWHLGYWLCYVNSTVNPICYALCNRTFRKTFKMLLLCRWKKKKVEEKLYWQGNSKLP

[6] = system: urinary bladder; set-up: method as in PMID 22243489; conditions: anesthetized rats; compared to oxybutynin; cited from earlier work
[7] = system: MSCs from mouse bone marrow; test: Carbachol-induced MSC viability (MTS assay); format: cell-based
Experimental: It is well established that bone marrow MSC behavior is influenced by a variety of signaling systems. In context, cholinergic intramural stimuli and, in particular, muscarinic signals orchestrate MSCs viability and commitment.[11],[12] Considering also the pluripotent MSC nature and their contribution to bone, blood, and systemic homeostasis,[53] viability studies on MSCs were performed to determine the functional profile of 3b, the most interesting compound in this series. […] Successively, the efficacy of 3b in contrasting cell viability induced by the well-known mAChR agonist carbachol was evaluated. […] Further research on the intracellular mechanistic outcomes of 3b on MSCs remains mandatory.
The in vitro studies were performed by using bone marrow MSCs as a model. Male BALB/c mice (Harlan Italy SrL, Milano, Italy) (8 weeks old; body weight ∼24.5 g; n = 4) were kept in a laminar-flow cage in a standardized environmental condition. Food (Harlan, Italy), and water was supplied ad libitum. Mice were sacrificed by CO2 narcosis and cervical dislocation in accordance with the recommendations of the Italian Ethical Committee and under the supervision of authorized investigators. Long bones (femurs and tibiae) were dissected and cleaned from skin, muscle, and connective tissues as much as possible. Bones were placed in a culture dish containing sterile PBS. Then, the bone cavity was flushed in DMEM with a syringe in order to collect the bone marrow cells into a 50 mL sterile tube. […] After 2 weeks of initiating culture, cells were washed with PBS, detached by trypsinization, counted, and plated at the density of 5,000 cells/well in 96 culture plates (Costar Corp., Milano, Italy) in DMEM containing 10% HIFCS, penicillin, and streptomycin.
MSCs were treated with compound 3b (from 10^–4 to 10^–10 M) for 24 h. […] At the end of each procedure, the MSCs viability was measured by MTS assay. […] The quantity of the formazan product was directly proportional to the number of living cells in culture. The colored formazan was measured by reading the absorbance at 490 nm using a […] plate reader.

[8] = biological target: T1, hM1 mAChR; test: [3H]NMS inhibition radioligand binding, hM1 in CHO-K1 cell membranes; conditions: [3H]NMS, CHO-K1 cell membranes; mean ± S.E.M.
[9] = biological target: T2, hM2 mAChR; test: [3H]NMS inhibition radioligand binding, hM2 in CHO-K1 cell membranes; conditions: [3H]NMS, CHO-K1 cell membranes; mean ± S.E.M.
[10] = biological target: T3, hM3 mAChR; test: [3H]NMS inhibition radioligand binding, hM3 in CHO-K1 cell membranes; conditions: [3H]NMS, CHO-K1 cell membranes; mean ± S.E.M.
[11] = biological target: T4, hM4 mAChR; test: [3H]NMS inhibition radioligand binding, hM4 in CHO-K1 cell membranes; conditions: [3H]NMS, CHO-K1 cell membranes; mean ± S.E.M.
[12] = biological target: T5, hM5 mAChR; test: [3H]NMS inhibition radioligand binding, hM5 in CHO-K1 cell membranes; conditions: [3H]NMS, CHO-K1 cell membranes; mean ± S.E.M.

T3 sequence (P20309 whole entry): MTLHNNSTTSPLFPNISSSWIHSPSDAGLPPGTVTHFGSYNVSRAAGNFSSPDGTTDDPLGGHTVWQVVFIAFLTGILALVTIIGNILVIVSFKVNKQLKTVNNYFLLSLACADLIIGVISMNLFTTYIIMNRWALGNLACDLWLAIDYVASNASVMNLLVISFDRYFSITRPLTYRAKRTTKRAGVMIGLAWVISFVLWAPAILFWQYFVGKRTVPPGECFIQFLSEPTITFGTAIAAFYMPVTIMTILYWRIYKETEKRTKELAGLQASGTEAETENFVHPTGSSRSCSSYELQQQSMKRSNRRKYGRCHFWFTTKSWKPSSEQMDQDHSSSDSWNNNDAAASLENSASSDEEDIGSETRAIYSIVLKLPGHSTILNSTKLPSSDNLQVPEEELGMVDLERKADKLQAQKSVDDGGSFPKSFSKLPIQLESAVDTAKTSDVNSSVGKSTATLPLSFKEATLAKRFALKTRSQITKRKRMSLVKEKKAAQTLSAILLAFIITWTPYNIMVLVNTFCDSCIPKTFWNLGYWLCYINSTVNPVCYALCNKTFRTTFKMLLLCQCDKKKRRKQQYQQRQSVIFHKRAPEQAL

## O=C(O[C@H]1C[C@H]2CC[C@@H](C1)[N+]21CCCC1)C(O)(c1ccccc1)c1ccccc1 [trospium]
[1]
  pKi hM1: 8.46
[2]
  pKi hM2: 8.94
[3]
  pKi hM3: 8.99
[4]
  pKi hM4: 8.84
[5]
  pKi hM5: 8.22

## C[N+](C)(C)C[C@H]1COCC(c2ccccc2)(c2ccccc2)O1 [(S)-(−)-2]
[6]
  reduction of volume-induced contractions of the urinary bladder: more efficaciously reduced the volume-induced contractions of the urinary bladder

## C[N+](C)(C)CCOC(N)=O [carbachol]
[7]; carbachol 10^–10 M, 24 h
  effect of agonist on MSC viability: increase of carbachol-induced MSC viability

## CN1[C@@H]2CC[C@H]1C[C@@H](OC(=O)C(CO)c1ccccc1)C2 (some centres unmarked) [atropine]
[7]; pre-incubation 1 h, then carbachol 10^–10 M for 24 h
  effect on carbachol-induced MSC viability: able to contrast the increase of carbachol-induced MSC viability

## C[N+](C)(C)C[C@@H]1COC[C@@](c2ccccc2)(C2CCCCC2)O1.[I-] (relative stereo) [3a, 1-((2R*,6S*)-6-Cyclohexyl-6-phenyl-1,4-dioxan-2-yl)-N,N,N-trimethylmethanaminium Iodide]
[8]
  pKi hM1: 8.03 ± 0.09
[9]
  pKi hM2: 7.36 ± 0.12
[10]
  pKi hM3: 7.84 ± 0.13
[11]
  pKi hM4: 7.51 ± 0.08
[12]
  pKi hM5: 7.26 ± 0.05
other
  melting point: 270 to 271 °C
